# Results reported in PubChem BioAssay AID1259407 (Chemical Carcinogenesis Research Information System (CCRIS), 2018).
# Activity calls are given as the source filed them. The rule behind the calls is not given here.
# System: CCRIS mutagenicity, Ames/micronucleus/aberration tests
# Test: CCRIS mutagenicity studies
# [1] = Test System: AMES SALMONELLA TYPHIMURIUM, Strain/Indicator: TA98, Metabolic Activation: NONE, Method: PREINCUBATION
# [2] = Test System: AMES SALMONELLA TYPHIMURIUM, Strain/Indicator: TA100, Metabolic Activation: NONE, Method: PREINCUBATION
# [3] = Test System: AMES SALMONELLA TYPHIMURIUM, Strain/Indicator: TA98, Metabolic Activation: NONE, Method: STANDARD PLATE
# [4] = Test System: AMES SALMONELLA TYPHIMURIUM, Strain/Indicator: TA100, Metabolic Activation: NONE, Method: STANDARD PLATE
smiles,measurement,setting,value
Cc1c(N=C=O)cccc1N=C=O,mutagenic call,"End Point: IN VITRO CHROMOSOMAL ABERRATIONS, Test System: CHL CELLS, Metabolic Activation: RAT, LIVER, S-9, SODIUM PHENOBARBITAL AND 5,6-BENZOFLAVONE",active; positive (ploidy changes); authors report equivocal results for structural chang
same,mutagenic call,"End Point: IN VITRO CHROMOSOMAL ABERRATIONS, Test System: CHO CELLS, Metabolic Activation: RAT, LIVER, S-9, AROCLOR 1254",inactive; negative; precipitation occurred at 500 ug/ml
same,mutagenic call,"Test System: AMES SALMONELLA TYPHIMURIUM, Strain/Indicator: TA97, Metabolic Activation: HAMSTER, LIVER, S-9, AROCLOR 1254 (10%), Method: PREINCUBATION",inactive; negative
same,mutagenic call,"Test System: AMES SALMONELLA TYPHIMURIUM, Strain/Indicator: TA97, Metabolic Activation: NONE, Method: PREINCUBATION",inactive; negative
same,mutagenic call,"Test System: AMES SALMONELLA TYPHIMURIUM, Strain/Indicator: TA97, Metabolic Activation: RAT, LIVER, S-9, AROCLOR 1254 (10%), Method: PREINCUBATION",inactive; negative
same,mutagenic call,"Test System: AMES SALMONELLA TYPHIMURIUM, Strain/Indicator: TA98, Metabolic Activation: HAMSTER, LIVER, S-9, AROCLOR 1254 (10%), Method: PREINCUBATION",active; positive
same,mutagenic call,[1],inactive; negative
same,mutagenic call,"Test System: AMES SALMONELLA TYPHIMURIUM, Strain/Indicator: TA98, Metabolic Activation: RAT LIVER S-9 AROCLOR 1254 (10 OR 30%), Method: STANDARD PLATE",active; positive
same,mutagenic call,"Test System: AMES SALMONELLA TYPHIMURIUM, Strain/Indicator: TA98, Metabolic Activation: RAT, LIVER, S-9, AROCLOR 1254 (10%), Method: PREINCUBATION",active; positive
same,mutagenic call,"Test System: AMES SALMONELLA TYPHIMURIUM, Strain/Indicator: TA100, Metabolic Activation: HAMSTER, LIVER, S-9, AROCLOR 1254 (10%), Method: PREINCUBATION",active; positive
same,mutagenic call,[2],inactive; negative
same,mutagenic call,"Test System: AMES SALMONELLA TYPHIMURIUM, Strain/Indicator: TA100, Metabolic Activation: RAT, LIVER, S-9, AROCLOR 1254 (10%), Method: PREINCUBATION",inactive; negative
same,mutagenic call,"Test System: AMES SALMONELLA TYPHIMURIUM, Strain/Indicator: TA1535, Metabolic Activation: HAMSTER, LIVER, S-9, AROCLOR 1254 (10%), Method: PREINCUBATION",inactive; negative
same,mutagenic call,"Test System: AMES SALMONELLA TYPHIMURIUM, Strain/Indicator: TA1535, Metabolic Activation: NONE, Method: PREINCUBATION",inactive; negative
same,mutagenic call,"Test System: AMES SALMONELLA TYPHIMURIUM, Strain/Indicator: TA1535, Metabolic Activation: RAT LIVER S-9, PHENOBARBITAL AND BETA-NAPHTHOFLAVONE, Method: PREINCUBATION",inactive; negative
same,mutagenic call,"Test System: AMES SALMONELLA TYPHIMURIUM, Strain/Indicator: TA1535, Metabolic Activation: RAT, LIVER, S-9, AROCLOR 1254 (10%), Method: PREINCUBATION",inactive; negative
same,mutagenic call,"Test System: AMES SALMONELLA TYPHIMURIUM, Strain/Indicator: TA1537, Metabolic Activation: NONE, Method: PREINCUBATION",inactive; negative
same,mutagenic call,"Test System: AMES SALMONELLA TYPHIMURIUM, Strain/Indicator: TA1537, Metabolic Activation: RAT LIVER S-9, AROCLOR 1254 (10 OR 30%), Method: STANDARD PLATE",inactive; negative
same,mutagenic call,"Test System: AMES SALMONELLA TYPHIMURIUM, Strain/Indicator: TA1537, Metabolic Activation: RAT LIVER S-9, PHENOBARBITAL AND BETA-NAPHTHOFLAVONE, Method: PREINCUBATION",inactive; negative
same,mutagenic call,"Test System: E.COLI, Strain/Indicator: WP2UVRA, Metabolic Activation: NONE, Method: PREINCUBATION",inactive; negative
same,mutagenic call,"Test System: E.COLI, Strain/Indicator: WP2UVRA, Metabolic Activation: RAT LIVER S-9, PHENOBARBITAL AND BETA-NAPHTHOFLAVONE, Method: PREINCUBATION",inactive; negative
same,mutagenic call,"Test System: MOUSE LYMPHOMA, Strain/Indicator: L5178Y (TK+/TK-), Metabolic Activation: NONE, Method: SUSPENSION/PLATE",active; positive
same,mutagenic call,"Test System: MOUSE LYMPHOMA, Strain/Indicator: L5178Y (TK+/TK-), Metabolic Activation: RAT, LIVER, S-9, AROCLOR 1254, Method: SUSPENSION/PLATE",active; positive
O=C(OCC1CCC2OC2C1)C1CCC2OC2C1 (centres undefined),mutagenic call,"Test System: AMES SALMONELLA TYPHIMURIUM, Strain/Indicator: TA97A, Metabolic Activation: NONE, Method: STANDARD PLATE",inactive; negative
same,mutagenic call,"Test System: AMES SALMONELLA TYPHIMURIUM, Strain/Indicator: TA97A, Metabolic Activation: RAT LIVER S-9, PHENOBARBITAL AND BETA-NAPHTHOFLAVONE (10%), Method: STANDARD PLATE",inactive; negative
same,mutagenic call,[3],inactive; negative
same,mutagenic call,"Test System: AMES SALMONELLA TYPHIMURIUM, Strain/Indicator: TA98, Metabolic Activation: RAT LIVER S-9, PHENOBARBITAL AND BETA-NAPHTHOFLAVONE (10%), Method: STANDARD PLATE",inactive; negative
same,mutagenic call,[4],inactive; negative
same,mutagenic call,"Test System: AMES SALMONELLA TYPHIMURIUM, Strain/Indicator: TA100, Metabolic Activation: RAT LIVER S-9, PHENOBARBITAL AND BETA-NAPHTHOFLAVONE (10%), Method: STANDARD PLATE",active; positive
same,mutagenic call,"Test System: AMES SALMONELLA TYPHIMURIUM, Strain/Indicator: TA102, Metabolic Activation: NONE, Method: STANDARD PLATE",inactive; negative
same,mutagenic call,"Test System: AMES SALMONELLA TYPHIMURIUM, Strain/Indicator: TA102, Metabolic Activation: RAT LIVER S-9, PHENOBARBITAL AND BETA-NAPHTHOFLAVONE (10%), Method: STANDARD PLATE",inactive; negative
Cc1cccc([N+](=O)[O-])c1C,mutagenic call,[1],inactive; negative
same,mutagenic call,"Test System: AMES SALMONELLA TYPHIMURIUM, Strain/Indicator: TA98, Metabolic Activation: RAT, LIVER, S-9, KANECHLOR 500, Method: PREINCUBATION",inactive; negative
same,mutagenic call,[2],inactive; negative
same,mutagenic call,"Test System: AMES SALMONELLA TYPHIMURIUM, Strain/Indicator: TA100, Metabolic Activation: RAT, LIVER, S-9, KANECHLOR 500, Method: PREINCUBATION",inactive; negative
CC(=O)Nc1ccc(Oc2ccc(NC(C)=O)cc2)cc1,mutagenic call,[3],inactive; negative
same,mutagenic call,"Test System: AMES SALMONELLA TYPHIMURIUM, Strain/Indicator: TA98, Metabolic Activation: RAT, LIVER, S-9, PCB, Method: STANDARD PLATE",inactive; negative
same,mutagenic call,[4],inactive; negative
same,mutagenic call,"Test System: AMES SALMONELLA TYPHIMURIUM, Strain/Indicator: TA100, Metabolic Activation: RAT, LIVER, S-9, PCB, Method: STANDARD PLATE",inactive; negative
